In ChEMBL document CHEMBL5360537, “From lead to clinic: A review of the structural design of P2X7R antagonists” (Eur J Med Chem, 2023):

What was measured:
P2X purinoceptor 7 [1] = target: T1, P2X purinoceptor 7 (Rattus norvegicus, UniProt Q64663); assay: Inhibition of rat P2X7 receptor transfected in HEK293 cells by calcium influx assay; type: cell-based
T1 sequence (Q64663 whole entry): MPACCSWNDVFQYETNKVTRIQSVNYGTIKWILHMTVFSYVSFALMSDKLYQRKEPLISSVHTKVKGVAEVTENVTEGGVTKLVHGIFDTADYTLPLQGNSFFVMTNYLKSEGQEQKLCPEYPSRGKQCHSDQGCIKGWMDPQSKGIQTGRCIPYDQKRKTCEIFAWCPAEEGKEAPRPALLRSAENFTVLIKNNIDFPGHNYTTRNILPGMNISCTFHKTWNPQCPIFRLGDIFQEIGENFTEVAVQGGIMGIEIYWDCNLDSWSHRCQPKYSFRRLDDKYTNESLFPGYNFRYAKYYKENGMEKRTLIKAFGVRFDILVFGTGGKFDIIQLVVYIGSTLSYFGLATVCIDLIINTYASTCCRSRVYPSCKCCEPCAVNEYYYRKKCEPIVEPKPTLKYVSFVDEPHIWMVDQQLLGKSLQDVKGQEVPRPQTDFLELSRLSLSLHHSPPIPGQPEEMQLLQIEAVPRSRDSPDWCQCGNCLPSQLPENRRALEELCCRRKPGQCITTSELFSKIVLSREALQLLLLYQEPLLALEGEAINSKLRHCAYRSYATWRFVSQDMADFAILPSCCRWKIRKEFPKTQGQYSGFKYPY

P2X purinoceptor 7 [2] = target: T2, P2X purinoceptor 7 (Homo sapiens, UniProt Q99572); assay: Inhibition of human P2X7 receptor transfected in HEK293 cells by calcium influx assay; type: cell-based
T2 sequence (Q99572 whole entry): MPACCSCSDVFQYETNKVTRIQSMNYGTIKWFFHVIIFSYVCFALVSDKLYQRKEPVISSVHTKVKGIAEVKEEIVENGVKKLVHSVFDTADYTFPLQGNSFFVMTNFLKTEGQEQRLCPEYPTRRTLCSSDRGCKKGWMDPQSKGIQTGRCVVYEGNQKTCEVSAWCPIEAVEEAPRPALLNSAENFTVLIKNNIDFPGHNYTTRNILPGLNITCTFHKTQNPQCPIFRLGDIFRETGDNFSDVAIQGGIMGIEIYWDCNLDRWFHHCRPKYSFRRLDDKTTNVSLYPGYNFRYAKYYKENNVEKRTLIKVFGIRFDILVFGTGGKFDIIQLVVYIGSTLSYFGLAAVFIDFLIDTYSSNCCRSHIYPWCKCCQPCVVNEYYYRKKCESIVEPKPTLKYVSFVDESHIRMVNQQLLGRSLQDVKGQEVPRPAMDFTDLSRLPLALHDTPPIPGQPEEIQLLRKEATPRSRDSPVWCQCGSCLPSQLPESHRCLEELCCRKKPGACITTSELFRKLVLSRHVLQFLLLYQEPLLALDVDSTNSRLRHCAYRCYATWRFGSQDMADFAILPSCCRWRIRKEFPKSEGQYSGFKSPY

P2X purinoceptor 7 [3] = target: T2, P2X purinoceptor 7; assay: Inhibition of human P2X7 receptor in HEK cells by fluorescence based calcium influx assay; type: cell-based
P2X purinoceptor 7 [4] = target: T2, P2X purinoceptor 7; assay: Antagonist activity at recombinant human P2X7 receptor expressed in 1321N1 cells measured after 30 mins by fluorescence based calcium flux assay; type: cell-based
P2X purinoceptor 7 [5] = target: T2, P2X purinoceptor 7; assay: Antagonist activity at P2X7 receptor in human THP-1 cells assessed as reduction in ATP induced IL-1 beta release; type: cell-based
[6] = target: T3, P2X purinoceptor 7 (Mus musculus) (UniProt Q9Z1M0); assay: Antagonist activity at P2X7 receptor in mouse Peritoneal macrophage cells assessed as ATP induced dye uptake at 10 uM relative to control; type: cell-based; conditions: filed as antagonist
T3 sequence (whole entry): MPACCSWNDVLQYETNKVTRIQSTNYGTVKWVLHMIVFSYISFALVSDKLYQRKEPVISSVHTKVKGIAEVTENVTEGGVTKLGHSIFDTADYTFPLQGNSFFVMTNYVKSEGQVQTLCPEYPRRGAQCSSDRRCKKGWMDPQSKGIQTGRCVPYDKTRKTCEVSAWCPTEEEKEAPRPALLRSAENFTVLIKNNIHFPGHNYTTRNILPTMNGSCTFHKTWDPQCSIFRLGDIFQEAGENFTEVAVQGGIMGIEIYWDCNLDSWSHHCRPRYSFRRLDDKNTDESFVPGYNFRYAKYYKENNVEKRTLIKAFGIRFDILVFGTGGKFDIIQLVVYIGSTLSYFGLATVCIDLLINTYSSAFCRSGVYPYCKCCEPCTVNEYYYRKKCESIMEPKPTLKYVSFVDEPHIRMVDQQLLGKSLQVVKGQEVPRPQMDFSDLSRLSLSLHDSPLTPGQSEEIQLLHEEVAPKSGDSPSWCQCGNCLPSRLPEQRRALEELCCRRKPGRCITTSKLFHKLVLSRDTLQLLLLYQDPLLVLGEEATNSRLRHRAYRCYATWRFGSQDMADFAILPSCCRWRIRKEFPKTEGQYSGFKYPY

P2X purinoceptor 7 [7] = target: T4, P2X purinoceptor 7 (Mus musculus, UniProt Q9Z1M0); assay: Antagonist activity at P2X7 receptor in mouse Peritoneal macrophage cells assessed as reduction in ATP induced IL-1 beta release; type: cell-based
T4 sequence (Q9Z1M0 whole entry): T3 sequence (whole entry)

Mus musculus = assay: Antiinflammatory activity in ATP induced mouse paw edema model; type: functional; conditions: read-out: ID50 (the source's name)
P2X purinoceptor 7 [8] = target: T2, P2X purinoceptor 7; assay: Inhibition of human P2X7 receptor expressed in HEK293 cells incubated for 5 mins followed by Bz-ATP addition measured after 3 mins by fluorescence based assay; type: cell-based
P2X purinoceptor 7 [9] = target: T4, P2X purinoceptor 7; assay: Inhibition of mouse P2X7 receptor expressed in HEK293 cells incubated for 5 mins followed by Bz-ATP addition measured after 3 mins by fluorescence based assay; type: cell-based
P2X purinoceptor 7 [10] = target: T4, P2X purinoceptor 7; assay: Inhibition of mouse P2X7 receptor expressed in xenopus laevis Oocyte cells by TEVC analysis; type: cell-based
P2X purinoceptor 7 [11] = target: T2, P2X purinoceptor 7; assay: Antagonist activity at P2X7 in human THP-1 cells; type: cell-based
[12] = Half life in human liver microsomes; type: ADME, Microsome
[13] = Half life in Han Wistar rat plasma at 1 mg/kg, iv measured upto 6 hrs by liquid chromatography tandem mass spectrometry; type: ADME, organism-based
[14] = AUC(0 to 6 hrs) in Han Wistar rat plasma at 1 mg/kg, iv measured upto 6 hrs by liquid chromatography tandem mass spectrometry; type: ADME, organism-based; design: time < 6 hrs, dose 1 mg/kg, route iv
[15] = AUC(0 to 6 hrs) in Han Wistar rat Brain at 1 mg/kg, iv measured upto 6 hrs by liquid chromatography tandem mass spectrometry; type: ADME, organism-based; design: time < 6 hrs, dose 1 mg/kg, route iv
[16] = Half life in Han Wistar rat Brain at 1 mg/kg, iv measured upto 6 hrs by liquid chromatography tandem mass spectrometry; type: ADME, organism-based

## O=C1CCC(C(=O)NCC2CCCCCCC2)c2cccnc21 (centres undefined)
P2X purinoceptor 7 [1]
  IC50: > 1000 nM
P2X purinoceptor 7 [2]
  IC50: > 1000 nM

## COc1ccc(Cl)c(C(=O)NCC23CC4CC(CC(F)(C4)C2)C3)c1
P2X purinoceptor 7 [3]
  IC50: 17 nM

## O=C(OCC1c2ncn(-c3ccccc3)c2CCN1C(=O)c1cccc(C(F)(F)F)c1Cl)c1cccc(C(F)(F)F)c1Cl (centres undefined)
P2X purinoceptor 7 [4]
  IC50: 3.1 nM

## CC1=C(C(c2ccc(Cl)cc2)n2cc(COCc3ccco3)nn2)C(=O)c2ccccc2C1=O (centres undefined)
P2X purinoceptor 7 [5]
  IC50: 1100 nM
[6]
  inhibition: 60%
P2X purinoceptor 7 [7]
  IC50: 1500 nM
Mus musculus
  ED50: 16 mg/kg

## O=C(NCC(c1scnc1C(F)F)N1CCC(Oc2cccc(Cl)n2)CC1)c1c(F)cccc1Cl (centres undefined)
P2X purinoceptor 7 [8]
  IC50: 11.1 nM
P2X purinoceptor 7 [9]
  IC50: 13.4 nM

## Cc1ccc(C2(CNC(=O)c3cc(CO[N+](=O)[O-])ccc3Cl)CCCCC2)cc1
P2X purinoceptor 7 [10]
  IC50: 1430 nM

## O=C(NCc1cccc(C(F)(F)F)c1Cl)[C@@]1(O)CCC(O)c2ncccc21 (some centres undefined)
P2X purinoceptor 7 [1]
  IC50: < 1000 nM
P2X purinoceptor 7 [2]
  IC50: 101 nM

## Cc1ccc2c(=O)n(C(C)CO)ccc2c1NC(=O)Cc1ccc(C(F)(F)F)c(F)c1 (centres undefined)
P2X purinoceptor 7 [11]
  IC50: 9.3 nM
[12]
  half-life: 55.8 min

## O=C(NCC1(c2ccc(CO[N+](=O)[O-])cc2)CCCCC1)c1ccccc1Cl
P2X purinoceptor 7 [10]
  IC50: 390 nM

## COc1ccc(Cl)c(C(=O)NCC23CC4(F)CC(F)(CC(F)(C4)C2)C3)c1
[13]
  half-life: 103 min
[14]
  AUC(0-t) at 6 h: 385 ng·h/mL
[15]
  AUC(0-t) at 6 h: 380 ng·h/mL
[16]
  half-life: 75.6 min

## COc1ccc(Cl)c(C(=O)NCC23CC4CC(CC(C4)C2)C3)c1
[13]
  half-life: 28.2 min
[14]
  AUC(0-t) at 6 h: 186 ng·h/mL
[15]
  AUC(0-t) at 6 h: 221 ng·h/mL
[16]
  half-life: 9.6 min
